6 compounds from US7176204B2, “Substituted carboxylic acid derivatives” (Kyorin Pahrmaceutical Co., Ltd., priority 2000, dated 2007) can be followed below.

Data set [1] addresses T1, human type PPARα ligand-binding domain fused with DNA-binding domain of yeast transcription factor (Homo sapiens, UniProt Q07869).
T1 construct: expressed in transfected cells; host or cells: CHO cells
T1 sequence (Q07869 239-466 limits assumed): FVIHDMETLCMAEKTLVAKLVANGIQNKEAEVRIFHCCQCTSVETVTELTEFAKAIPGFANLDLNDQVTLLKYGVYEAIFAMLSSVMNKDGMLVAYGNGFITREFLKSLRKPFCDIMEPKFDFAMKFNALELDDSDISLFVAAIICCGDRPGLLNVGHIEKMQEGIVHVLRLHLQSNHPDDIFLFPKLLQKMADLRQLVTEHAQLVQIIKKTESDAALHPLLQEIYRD
The data set can be described thus: Test of transactivation on PPAR (luciferase reporter, CHO cells), PPARα. The following applies: luciferase activity after 24 hours, corrected with Renilla internal standard. It counts as cell-based. The text has this: (§1) <Test of Transactivation on Peroxisome Proliferator-Activated Receptor (PPAR)
(§2) To CHO cells cultured in a Dulbecco-modified Eagle's medium containing 10% delipidated fetal calf serum (FCS/DMEM), receptor plasmid and its reporter plasmid (STRATAGENE Corp.) that manifest fused protein of DNA-binding domain being transcription factor of yeast with each ligand-binding domain of human type PPAR (Biochemistry, 1993, 32, 5598), and luciferase plasmid of Renilla (PROMEGA Corp.) for internal standard were cotransfected with lipofectamine in the serum-free state. Thereafter, testing compound was added to the 10% SFCS/DMEM and both luciferase activities were measured after 24 hours, which were corrected with internal standard.

The target in data set [2] is T2, human type PPARγ ligand-binding domain fused with DNA-binding domain of yeast transcription factor (Homo sapiens, UniProt P37231).
T2 construct: expressed in transfected cells; host or cells: CHO cells
T2 sequence (P37231 238-503 limits assumed): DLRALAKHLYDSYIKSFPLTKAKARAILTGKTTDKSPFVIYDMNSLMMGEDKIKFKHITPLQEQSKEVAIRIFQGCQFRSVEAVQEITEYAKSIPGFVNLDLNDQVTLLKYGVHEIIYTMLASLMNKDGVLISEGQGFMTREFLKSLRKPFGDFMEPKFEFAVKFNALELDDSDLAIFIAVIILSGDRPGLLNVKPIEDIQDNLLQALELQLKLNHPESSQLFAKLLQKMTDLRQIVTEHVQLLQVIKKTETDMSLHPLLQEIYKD
The data set can be described thus: Test of transactivation on PPAR (luciferase reporter, CHO cells), PPARγ. It counts as cell-based. The following applies: luciferase activity after 24 hours, corrected with Renilla internal standard.
Source text: as §1, §2

In data set [3] the target is T3, human type PPARδ ligand-binding domain fused with DNA-binding domain of yeast transcription factor (Homo sapiens, UniProt Q03181).
T3 construct: expressed in transfected cells; host or cells: CHO cells
T3 sequence (Q03181 211-439 limits assumed): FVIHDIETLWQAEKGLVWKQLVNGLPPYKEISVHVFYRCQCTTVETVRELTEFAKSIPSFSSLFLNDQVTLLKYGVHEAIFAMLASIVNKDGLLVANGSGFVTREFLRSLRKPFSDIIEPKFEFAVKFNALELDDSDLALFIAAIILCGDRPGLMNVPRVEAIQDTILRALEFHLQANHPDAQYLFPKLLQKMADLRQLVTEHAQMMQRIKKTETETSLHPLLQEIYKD
In words: Test of transactivation on PPAR (luciferase reporter, CHO cells), PPARδ. It counts as cell-based. The following applies: luciferase activity after 24 hours, corrected with Renilla internal standard.
Source text: as §1, §2

Where only a bound is given, the exact number is not on record here.

In the case of `CCOc1ccc(CC(CC)C(=O)O)cc1CNC(=O)c1ccc(Oc2ccccn2)cc1` (single isomer, unassigned; (+)) [Example 27, (+)-2-[[4-Ethoxy-3-[[[4-(2-pyridyloxy)phenyl]carbonylamino]-methyl]phenyl]methyl]butyric acid], the EC50 stood at 60 nM in data set [1], 550 nM in data set [2] and 210 nM in data set [3].
The matching figures for `CCOc1ccc(CC(CC)C(=O)O)cc1CNC(=O)c1ccc(Oc2ccccn2)cc1` (racemic) [Example 26, 2-[[4-Ethoxy-3-[[[4-(2-pyridyloxy)phenyl]carbonylamino]-methyl]phenyl]methyl]butyric acid]: 44 nM, 410 nM and 190 nM.
For `CCOc1ccc(CC(CC)C(=O)O)cc1CNC(=O)c1ccc(Oc2ccccn2)cc1` (single isomer, unassigned; (-)) [Example 28, (−)-2-[[4-Ethoxy-3-[[[4-(2-pyridyloxy)phenyl]carbonylamino]methyl]phenyl]methyl]butyric acid], in that order: 190 nM, 580 nM and 1100 nM.
In turn, `CCC(Cc1ccc(OC)c(C(=O)NCc2ccc(Oc3ccccn3)cc2)c1)C(=O)O` (centres unmarked) [Example 18] displayed a melting point of 138 to 139 °C. In addition, in data set [1], the EC50 stood at 140 nM. A half-maximal effect in data set [2] (EC50) was put at 9600 nM. The EC50 in data set [3] is over 100000 nM.
`COc1ccc(CCC(=O)O)cc1C(=O)NCc1cccnc1` [Example 16, 3-[3-[N-(3-Pyridylmethyl)carbamoyl]-4-methoxyphenyl]propionic acid]: the melting point fell in the range of 175 to 176 °C.
As for `CCC(Cc1ccc(OC)c(CNC(=O)c2ccc(Oc3cccnc3)cc2)c1)C(=O)O` (centres unmarked) [Example 23], the 50% effective concentration (EC50) in data set [1] turned out to be 340 nM; in data set [2], 5400 nM; in data set [3], 2200 nM.
